# From patent US12195490B2, “STRAD-binding agents and uses thereof” (The Regents of the University of California, priority 2020, dated 2025)
# Target: T1, LKB1 (Homo sapiens, UniProt Q15831+Q7RTN6)
# T1 sequence (Q15831 1-433): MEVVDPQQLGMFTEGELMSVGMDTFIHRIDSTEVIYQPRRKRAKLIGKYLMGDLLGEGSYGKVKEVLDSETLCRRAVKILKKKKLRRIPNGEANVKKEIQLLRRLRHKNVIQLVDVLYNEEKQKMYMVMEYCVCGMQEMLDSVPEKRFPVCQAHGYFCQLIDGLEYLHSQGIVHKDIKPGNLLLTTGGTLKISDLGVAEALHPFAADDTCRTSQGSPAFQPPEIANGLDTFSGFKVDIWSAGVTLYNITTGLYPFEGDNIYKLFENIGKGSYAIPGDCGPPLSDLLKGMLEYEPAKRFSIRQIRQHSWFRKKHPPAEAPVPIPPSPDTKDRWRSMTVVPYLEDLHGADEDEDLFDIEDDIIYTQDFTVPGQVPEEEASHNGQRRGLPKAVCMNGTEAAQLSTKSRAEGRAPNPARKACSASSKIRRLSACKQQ
# T1 sequence (Q7RTN6 1-431): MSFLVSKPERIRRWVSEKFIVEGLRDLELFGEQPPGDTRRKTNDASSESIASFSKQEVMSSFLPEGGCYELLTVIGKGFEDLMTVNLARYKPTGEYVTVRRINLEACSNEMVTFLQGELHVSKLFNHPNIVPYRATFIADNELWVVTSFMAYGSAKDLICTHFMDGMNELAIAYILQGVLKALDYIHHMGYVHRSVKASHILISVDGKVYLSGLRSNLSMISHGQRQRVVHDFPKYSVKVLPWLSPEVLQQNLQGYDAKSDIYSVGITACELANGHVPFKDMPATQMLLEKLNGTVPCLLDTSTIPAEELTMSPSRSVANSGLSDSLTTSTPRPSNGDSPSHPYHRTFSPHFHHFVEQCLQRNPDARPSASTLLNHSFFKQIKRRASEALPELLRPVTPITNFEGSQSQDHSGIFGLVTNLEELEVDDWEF
# T1 sequence (Q9Y376 1-341 partner): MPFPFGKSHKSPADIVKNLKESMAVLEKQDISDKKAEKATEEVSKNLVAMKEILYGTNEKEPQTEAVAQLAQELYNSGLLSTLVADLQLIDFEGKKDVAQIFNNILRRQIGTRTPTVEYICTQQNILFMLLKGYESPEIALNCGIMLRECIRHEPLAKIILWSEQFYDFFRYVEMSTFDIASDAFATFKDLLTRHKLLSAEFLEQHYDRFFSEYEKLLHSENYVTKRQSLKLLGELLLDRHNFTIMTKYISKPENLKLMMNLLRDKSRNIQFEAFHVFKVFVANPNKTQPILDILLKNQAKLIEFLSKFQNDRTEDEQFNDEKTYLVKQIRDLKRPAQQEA
# Experiment: in vitro LKB1 functional activity
# Assay type: biochemical
# Conditions: APA analogs
row,SMILES,LKB1 % Act. Increase
1,"Cc1ccc(-c2cnc(N)c(C(=O)Nc3ccc([S@SP3](=O)(=O)CP(=O)(O)O)cc3)n2)cc1 [SU20668-0312, (((4-(3-amino-6-(p-tolyl)pyrazine-2-carboxamido)phenyl)sulfonyl)methyl)phosphonic acid]",C (C=199-1000%)
2,"Cc1ccc(-c2cnc(N)c(C(=O)Nc3ccc(S(=O)(=O)CC4CCO4)cc3)n2)cc1 (stereo not drawn) [SU20668-0500, 3-amino-N-(4-(oxetan-2-ylmethylsulfonyl)phenyl)-6-p-tolylpyrazine-2-carboxamide]",B (B=399-2000%)
3,"COP(=O)(CS(=O)(=O)c1ccc(NC(=O)c2nc(-c3cc(F)ccc3Cl)cnc2N)cc1)OC [SU20668-0449, dimethyl (4-(3-amino-6-(2-chloro-5-fluorophenyl)pyrazine-2-carboxamido)phenylsulfonyl)methylphosphonate]",C (C=199-1000%)
4,"CC(=O)NS(=O)(=O)c1ccc(NC(=O)c2nc(-c3ccc(C(N)=O)cc3)cnc2N)cc1 [SU20668-0342, N-(4-(N-acetylsulfamoyl)phenyl)-3-amino-6-(4-carbamoylphenyl)pyrazine-2-carboxamide]",D (D=<1000%)
5,"Cc1ccc(-c2cnc(N)c(C(=O)Nc3cnc(S(C)(=O)=O)nc3)n2)cc1 [SU20668-0303, 3-amino-N-(2-(methylsulfonyl)pyrimidin-5-yl)-6-p-tolylpyrazine-2-carboxamide]",D (D=<1000%)
6,"Cc1ccc(-c2cnc(N)c(C(=O)Nc3ccc(P(=O)(O)O)cc3)n2)cc1 [SU20668-0196, 4-(3-amino-6-p-tolylpyrazine-2-carboxamido)phenylphosphonic acid]",C (C=199-1000%)
7,"Cc1ccc(-c2cnc(N)c(C(=O)Nc3ccc(S(=O)(=O)CC(=O)O)cc3)n2)cc1 [SU20668-0310, 2-(4-(3-amino-6-p-tolylpyrazine-2-carboxamido)phenylsulfonyl)acetic acid]",D (D=<1000%)
8,"Cc1ccc(-c2cnc(N)c(C(=O)Nc3ccc(S(=O)(=O)C(F)(F)F)cc3)n2)cc1 [SU20668-0292, 3-amino-6-p-tolyl-N-(4-(trifluoromethylsulfonyl)phenyl)pyrazine-2-carboxamide]",D (D=<1000%)
9,"CCOP(=O)(CS(=O)(=O)c1ccc(NC(=O)c2nc(-c3cc(F)ccc3C#N)cnc2N)cc1)OCC [SU20668-0471, diethyl (4-(3-amino-6-(2-cyano-5-fluorophenyl)pyrazine-2-carboxamido)phenylsulfonyl)methylphosphonate]",D (D=<1000%)
10,"Cc1ccc(-c2cnc(N)c(C(=O)Nc3ccc(C(=O)O)cc3)n2)cc1 [SU20668-0279, 4-(3-amino-6-p-tolylpyrazine-2-carboxamido)benzoic acid]",C (C=199-1000%)
11,Cc1ccc(-c2cnc(N)c(C(=O)Nc3ccc(S(C)(=N)=O)cc3)n2)cc1 (stereo not drawn) [SU20668-0490],C (C=199-1000%)
12,"Cc1ccc(-c2cnc(N)c(C(=O)Nc3ccc(S(=O)(=O)NS(C)(=O)=O)cc3)n2)cc1 [SU20668-0470, 3-amino-N-(4-(N-(methylsulfonyl)sulfamoyl)phenyl)-6-p-tolylpyrazine-2-carboxamide]",D (D=<1000%)
13,CCOP(C)(=O)COc1ccc(NC(=O)c2nc(-c3ccc(C)cc3)cnc2N)cc1 (stereo not drawn) [SU20668-0476],D (D=<1000%)
14,"COP(=O)(CS(=O)(=O)c1ccc(NC(=O)c2nc(-c3ccc(C)c(O)c3)cnc2N)cc1)OC [SU20668-0496, dimethyl (4-(3-amino-6-(3-hydroxy-4-methylphenyl)pyrazine-2-carboxamido)phenylsulfonyl)methylphosphonate]",C (C=199-1000%)
15,"CC(=O)NS(=O)(=O)c1ccc(NC(=O)c2nc(-c3cccc(N)c3)cnc2N)cc1 [SU20668-0350, N-(4-(N-acetylsulfamoyl)phenyl)-3-amino-6-(3-aminophenyl)pyrazine-2-carboxamide]",D (D=<1000%)
